Reference: patent US10172961B2 (priority 2014, dated 2019)

Experiments:
[1] = rat, in vivo
[2] = in vivo; conditions: rat, inhaled or intranasal, 6 mg/kg

SMILES | presence in the brain / CNS localization [1] | presence in the serum [1] | level at time molar at 8 h [2] [nM]
CC[C@H](C)[C@H](NC(=O)[C@H](C)NC(=O)[C@H](CC(N)=O)NC(=O)CNC(=O)[C@H](CC(C)C)NC(=O)[C@H](CC(N)=O)NC(=O)[C@@H](NC(=O)CNC(=O)[C@@H](NC(=O)[C@H](CC(=O)O)NC(=O)[C@H](CC(C)C)NC(=O)[C@H](CCCNC(=N)N)NC(=O)[C@H](CCC(=O)O)NC(=O)[C@H](CC(C)C)NC(=O)[C@H](CO)NC(=O)[C@@H](NC(=O)[C@@H]1CCCN1C(=O)[C@@H]1CCCN1C(C)=O)[C@@H](C)CC)C(C)C)[C@@H](C)O)C(=O)N[C@@H](C)C(=O)N[C@@H](CCCCN)C(=O)N[C@@H](CC(C)C)C(=O)N[C@@H](CCC(=O)O)C(=O)N[C@@H](CC(=O)O)C(=O)N[C@@H](C)C(=O)N[C@@H](CCCCN)C(=O)N[C@@H](CCC(=O)O)C(=O)N[C@@H](CC(C)C)C(=O)N[C@@H](CC(C)C)C(=O)N[C@@H](CCC(=O)O)C(=O)N[C@@H](CO)C(=O)N[C@@H](CO)C(=O)N[C@@H](CC(=O)O)C(=O)N[C@@H](CCC(N)=O)C(=O)N[C@H](C(=O)N[C@@H](CC(C)C)C(=O)N[C@@H](CCCNC(=N)N)C(=O)NCC(=O)N[C@@H](CO)C(=O)NCC(=O)N[C@@H](CO)C(=O)NCC(=O)N[C@@H](CSC1=CC(=O)N(CCCC(=O)NCCOCCOCCOCCOCCC(=O)NCCN(CCNC(=O)CCOCCOCCOCCOCCNC(=O)CCCN2C(=O)C=C(SC[C@H](NC(=O)CNC(=O)[C@H](CO)NC(=O)CNC(=O)[C@H](CO)NC(=O)CNC(=O)[C@H](CCCNC(=N)N)NC(=O)[C@H](CC(C)C)NC(=O)[C@@H](NC(=O)[C@H](CCC(N)=O)NC(=O)[C@H](CC(=O)O)NC(=O)[C@H](CO)NC(=O)[C@H](CO)NC(=O)[C@H](CCC(=O)O)NC(=O)[C@H](CC(C)C)NC(=O)[C@H](CC(C)C)NC(=O)[C@H](CCC(=O)O)NC(=O)[C@H](CCCCN)NC(=O)[C@H](C)NC(=O)[C@H](CC(=O)O)NC(=O)[C@H](CCC(=O)O)NC(=O)[C@H](CC(C)C)NC(=O)[C@H](CCCCN)NC(=O)[C@H](C)NC(=O)[C@@H](NC(=O)[C@H](C)NC(=O)[C@H](CC(N)=O)NC(=O)CNC(=O)[C@H](CC(C)C)NC(=O)[C@H](CC(N)=O)NC(=O)[C@@H](NC(=O)CNC(=O)[C@@H](NC(=O)[C@H](CC(=O)O)NC(=O)[C@H](CC(C)C)NC(=O)[C@H](CCCNC(=N)N)NC(=O)[C@H](CCC(=O)O)NC(=O)[C@H](CC(C)C)NC(=O)[C@H](CO)NC(=O)[C@@H](NC(=O)[C@@H]3CCCN3C(=O)[C@@H]3CCCN3C(C)=O)[C@@H](C)CC)C(C)C)[C@@H](C)O)[C@@H](C)CC)[C@@H](C)CC)C(N)=O)C2=O)CCOc2c(C)c(C)c3c(c2C)CC[C@](C)(CCC[C@@H](C)CCC[C@@H](C)CCCC(C)C)O3)C1=O)C(N)=O)[C@@H](C)CC [HRC4-tocopherol] | no CNS localization | minimal presence in the serum | ~2000
CC[C@H](C)[C@H](NC(=O)[C@H](C)NC(=O)[C@H](CC(N)=O)NC(=O)CNC(=O)[C@H](CC(C)C)NC(=O)[C@H](CC(N)=O)NC(=O)[C@@H](NC(=O)CNC(=O)[C@@H](NC(=O)[C@H](CC(=O)O)NC(=O)[C@H](CC(C)C)NC(=O)[C@H](CCCNC(=N)N)NC(=O)[C@H](CCC(=O)O)NC(=O)[C@H](CC(C)C)NC(=O)[C@H](CO)NC(=O)[C@@H](NC(=O)[C@@H]1CCCN1C(=O)[C@@H]1CCCN1C(C)=O)[C@@H](C)CC)C(C)C)[C@@H](C)O)C(=O)N[C@@H](C)C(=O)N[C@@H](CCCCN)C(=O)N[C@@H](CC(C)C)C(=O)N[C@@H](CCC(=O)O)C(=O)N[C@@H](CC(=O)O)C(=O)N[C@@H](C)C(=O)N[C@@H](CCCCN)C(=O)N[C@@H](CCC(=O)O)C(=O)N[C@@H](CC(C)C)C(=O)N[C@@H](CC(C)C)C(=O)N[C@@H](CCC(=O)O)C(=O)N[C@@H](CO)C(=O)N[C@@H](CO)C(=O)N[C@@H](CC(=O)O)C(=O)N[C@@H](CCC(N)=O)C(=O)N[C@H](C(=O)N[C@@H](CC(C)C)C(=O)N[C@@H](CCCNC(=N)N)C(=O)NCC(=O)N[C@@H](CO)C(=O)NCC(=O)N[C@@H](CO)C(=O)NCC(=O)N[C@@H](CSC1=CC(=O)N(CCCC(=O)NCCOCCOCCOCCOCCC(=O)NCCN(CCNC(=O)CCOCCOCCOCCOCCNC(=O)CCCN2C(=O)C=C(SC[C@H](NC(=O)CNC(=O)[C@H](CO)NC(=O)CNC(=O)[C@H](CO)NC(=O)CNC(=O)[C@H](CCCNC(=N)N)NC(=O)[C@H](CC(C)C)NC(=O)[C@@H](NC(=O)[C@H](CCC(N)=O)NC(=O)[C@H](CC(=O)O)NC(=O)[C@H](CO)NC(=O)[C@H](CO)NC(=O)[C@H](CCC(=O)O)NC(=O)[C@H](CC(C)C)NC(=O)[C@H](CC(C)C)NC(=O)[C@H](CCC(=O)O)NC(=O)[C@H](CCCCN)NC(=O)[C@H](C)NC(=O)[C@H](CC(=O)O)NC(=O)[C@H](CCC(=O)O)NC(=O)[C@H](CC(C)C)NC(=O)[C@H](CCCCN)NC(=O)[C@H](C)NC(=O)[C@@H](NC(=O)[C@H](C)NC(=O)[C@H](CC(N)=O)NC(=O)CNC(=O)[C@H](CC(C)C)NC(=O)[C@H](CC(N)=O)NC(=O)[C@@H](NC(=O)CNC(=O)[C@@H](NC(=O)[C@H](CC(=O)O)NC(=O)[C@H](CC(C)C)NC(=O)[C@H](CCCNC(=N)N)NC(=O)[C@H](CCC(=O)O)NC(=O)[C@H](CC(C)C)NC(=O)[C@H](CO)NC(=O)[C@@H](NC(=O)[C@@H]3CCCN3C(=O)[C@@H]3CCCN3C(C)=O)[C@@H](C)CC)C(C)C)[C@@H](C)O)[C@@H](C)CC)[C@@H](C)CC)C(N)=O)C2=O)CCOC2CCC3(C)C(=CCC4C3CCC3(C)C(C(C)CCCC(C)C)CCC43)C2)C1=O)C(N)=O)[C@@H](C)CC (stereo partly drawn) [MV HRC4] | a small fraction of the administered peptides was present | a small fraction of the administered peptides was present | ~400
